Experimental data published in a compilation of properties of binary mixtures (doi:10.1016/j.jct.2016.03.014).

Test: xn = mol fraction of the nth substance listed
Settings: 101.3 kPa

CC[n+]1ccn(C)c1.O=S(=O)([O-])C(F)(F)F + CCCCCO
speed of sound [m/s]
Settings | 298.15 K | 308.15 K | 318.15 K | 328.15 K
x2 = 0 | 1435.8 | 1413.5 | – | 1369.8
x2 = 0.0507 | 1431.8 | 1409.5 | – | –
x2 = 0.108 | 1423.1 | 1400.8 | 1378.7 | 1357.1
x2 = 0.1716 | – | 1387.5 | 1365.4 | –
x2 = 0.2365 | 1395.2 | – | 1350.1 | 1328.1
x2 = 0.3297 | 1373.9 | 1350.8 | 1328 | 1305.7
x2 = 0.4357 | 1348.1 | – | 1301.1 | 1278.1
x2 = 0.5702 | 1317.4 | 1292.8 | 1268.5 | 1244.5
x2 = 0.5941 | 1312 | 1287.2 | 1262.7 | 1238.5
x2 = 0.7208 | 1287.9 | 1261.6 | – | –
x2 = 0.8085 | – | 1249.1 | 1221.4 | 1194
x2 = 0.8515 | 1273.4 | 1244.7 | 1216.1 | 1187.7
x2 = 0.8998 | 1271.4 | 1241.4 | 1211.5 | 1181.9
x2 = 0.9479 | 1271.7 | 1240.2 | – | 1177.7

CCCCCO + CC[n+]1ccn(C)c1.O=S(=O)([O-])C(F)(F)F
x1 = 1
Settings | speed of sound [m/s]
298.15 K | 1274.9
308.15 K | 1241.4
328.15 K | 1175.3
